Reference: ChEMBL document CHEMBL1201862, “PubChem BioAssay data set” (2004)
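Compound exposure: 48 hours, 5 concentrations, 96-well plates. GI50 = concentration required for 50% inhibition of growth.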 The source made the active and inactive calls. Cut-off read from the data, not from the text of the source: active = GI50 up to about 1.1 µM and inactive = higher.

Key:
Test in all cases: DTP human tumour cell line panel, 48 h
[1] = tested on: 786-0
[2] = tested on: A498
[3] = tested on: CCRF-CEM
[4] = tested on: COLO 205
[5] = tested on: EKVX
[6] = tested on: HCT-15
[7] = tested on: HOP-62
[8] = tested on: HOP-92
[9] = tested on: Hs-578T
[10] = tested on: IGROV-1
[11] = tested on: NCI-H522
[12] = tested on: PC-3
[13] = tested on: RXF 393
[14] = tested on: SNB-19
[15] = tested on: SR
[16] = tested on: T47D
[17] = tested on: U-251
[18] = tested on: UACC-257
[19] = tested on: UO-31
[20] = tested on: BT-549

SMILES: CCC(C)C(=O)O[C@H]1C(=O)O[C@@H]2C[C@H]3C(C)=CC(=O)[C@@H](O)[C@]3(C)[C@H]3[C@@H](O)[C@H](O)[C@@]4(C)OC[C@]32[C@@H]14 (stereo not given in full)
- GI50 [1]: < 0.0194 µM (active)
- GI50 [2]: < 0.01 µM (active)
- GI50 [3]: 0.0143 µM (active)
- GI50 [4]: 0.0229 µM (active)
- GI50 [5]: 0.121 µM (active)
- GI50 [6]: < 0.0204 µM
- GI50 [7]: < 0.0221 µM (active)
- GI50 [8]: < 0.0237 µM (active)
- GI50 [9]: < 0.01 µM (active)
- GI50 [10]: < 0.0191 µM (active)
- GI50 [11]: 0.0147 µM (active)
- GI50 [12]: < 0.01 µM (active)
- GI50 [13]: 0.015 µM (active)
- GI50 [14]: < 0.0143 µM (active)
- GI50 [15]: 0.01 µM (active)
- GI50 [16]: < 0.01 µM (active)
- GI50 [17]: < 0.0171 µM (active)
- GI50 [18]: < 0.01 µM (active)
- GI50 [19]: < 0.0217 µM (active)

SMILES: CN(C)c1ccc(C=c2c3ccccc3n3c2cc(-c2ccc(Cl)cc2)[n+]3C)cc1
- GI50 [1]: 0.267 µM (active)
- GI50 [2]: 1.51 µM (inactive)
- GI50 [20]: 0.201 µM (active)
- GI50 [3]: 0.0649 µM (active)
- GI50 [4]: 0.0705 µM (active)
- GI50 [5]: 0.617 µM (active)
- GI50 [6]: 1.47 µM
- GI50 [7]: 0.406 µM (active)
- GI50 [8]: 0.221 µM (active)
- GI50 [11]: 0.0577 µM (active)
- GI50 [12]: 0.167 µM (active)
- GI50 [13]: 0.822 µM (active)
- GI50 [14]: 0.268 µM (active)
- GI50 [16]: 0.133 µM (active)
- GI50 [17]: 0.0269 µM (active)
- GI50 [18]: 0.158 µM (active)
- GI50 [19]: 0.904 µM (active)

SMILES: CN(CC(=O)O)c1ncc2c(n1)C=CCC2
- GI50 [1]: > 100 µM (inactive)
- GI50 [2]: > 100 µM (inactive)
- GI50 [3]: > 100 µM (inactive)
- GI50 [4]: > 100 µM (inactive)
- GI50 [5]: > 100 µM (inactive)
- GI50 [6]: > 100 µM
- GI50 [7]: > 100 µM (inactive)
- GI50 [8]: > 100 µM (inactive)
- GI50 [9]: > 100 µM (inactive)
- GI50 [10]: > 100 µM (inactive)
- GI50 [11]: > 100 µM (inactive)
- GI50 [12]: > 100 µM (inactive)
- GI50 [13]: > 100 µM (inactive)
- GI50 [14]: > 100 µM (inactive)
- GI50 [15]: > 100 µM (inactive)
- GI50 [17]: > 100 µM (inactive)
- GI50 [18]: > 100 µM (inactive)
- GI50 [19]: > 100 µM (inactive)

SMILES: CCCCCCCCCCCCCCCCNc1nc(=O)n(C2CC(O)C(COP(=O)(O)OC3CC(n4cc(F)c(=O)[nH]c4=O)OC3CO)O2)cc1F (stereo not given)
- GI50 [1]: 0.416 µM (active)
- GI50 [2]: 0.09 µM (active)
- GI50 [3]: < 0.0122 µM (active)
- GI50 [4]: 10.9 µM (inactive)
- GI50 [5]: 26.4 µM (inactive)
- GI50 [6]: 3.18 µM
- GI50 [7]: < 0.0296 µM (active)
- GI50 [8]: 4.38 µM (inactive)
- GI50 [9]: 15.6 µM (inactive)
- GI50 [10]: 1.95 µM (inactive)
- GI50 [11]: 8.75 µM (inactive)
- GI50 [12]: 6.35 µM (inactive)
- GI50 [13]: 6.97 µM (inactive)
- GI50 [14]: 0.27 µM (active)
- GI50 [15]: < 0.0243 µM (active)
- GI50 [16]: 6.68 µM (inactive)
- GI50 [17]: 1.66 µM (inactive)
- GI50 [18]: 12.8 µM (inactive)
- GI50 [19]: 0.257 µM (active)

SMILES: C=C1CCCCCCCCC/C=C/1SCCCSC
- GI50 [1]: > 100 µM (inactive)
- GI50 [2]: > 100 µM (inactive)
- GI50 [4]: > 100 µM (inactive)
- GI50 [5]: > 100 µM (inactive)
- GI50 [6]: > 100 µM
- GI50 [7]: > 100 µM (inactive)
- GI50 [8]: > 100 µM (inactive)
- GI50 [9]: > 100 µM (inactive)
- GI50 [10]: > 100 µM (inactive)
- GI50 [11]: > 100 µM (inactive)
- GI50 [12]: > 100 µM (inactive)
- GI50 [13]: > 100 µM (inactive)
- GI50 [14]: > 100 µM (inactive)
- GI50 [15]: > 100 µM (inactive)
- GI50 [16]: > 100 µM (inactive)
- GI50 [17]: > 100 µM (inactive)
- GI50 [18]: > 100 µM (inactive)
- GI50 [19]: > 100 µM (inactive)

SMILES: N=C(N)c1ccc2oc3ccc(C(=N)N)cc3c(=O)c2c1
- GI50 [1]: > 100 µM (inactive)
- GI50 [2]: > 100 µM (inactive)
- GI50 [20]: > 100 µM (inactive)
- GI50 [3]: > 100 µM (inactive)
- GI50 [4]: > 100 µM (inactive)
- GI50 [6]: > 100 µM
- GI50 [8]: > 100 µM (inactive)
- GI50 [10]: > 100 µM (inactive)
- GI50 [11]: > 100 µM (inactive)
- GI50 [12]: > 100 µM (inactive)
- GI50 [13]: > 100 µM (inactive)
- GI50 [14]: > 100 µM (inactive)
- GI50 [16]: > 100 µM (inactive)
- GI50 [17]: > 100 µM (inactive)
- GI50 [18]: > 100 µM (inactive)
- GI50 [19]: > 100 µM (inactive)

SMILES: CC(=O)/C(=C/NC(=S)c1ccncc1)C(=O)Nc1ccccc1C
- GI50 [1]: > 100 µM (inactive)
- GI50 [2]: > 100 µM (inactive)
- GI50 [20]: > 100 µM (inactive)
- GI50 [4]: > 100 µM (inactive)
- GI50 [5]: > 100 µM (inactive)
- GI50 [6]: > 100 µM
- GI50 [7]: > 100 µM (inactive)
- GI50 [8]: > 100 µM (inactive)
- GI50 [10]: > 100 µM (inactive)
- GI50 [13]: > 100 µM (inactive)
- GI50 [14]: > 100 µM (inactive)
- GI50 [16]: > 100 µM (inactive)
- GI50 [17]: > 100 µM (inactive)
- GI50 [18]: > 100 µM (inactive)
- GI50 [19]: > 100 µM (inactive)

SMILES: O=c1oc2ccccc2c2c(=O)c3ccc(OC/C(=N/O)c4ccc(Cl)cc4)cc3oc12
- GI50 [1]: 11.4 µM (inactive)
- GI50 [2]: 3.15 µM (inactive)
- GI50 [3]: 28.3 µM (inactive)
- GI50 [4]: 15 µM (inactive)
- GI50 [6]: 7.4 µM
- GI50 [7]: 15.1 µM (inactive)
- GI50 [8]: 11 µM (inactive)
- GI50 [9]: 8.3 µM (inactive)
- GI50 [10]: 31.5 µM (inactive)
- GI50 [12]: 7.48 µM (inactive)
- GI50 [13]: 2.16 µM (inactive)
- GI50 [14]: 14.9 µM (inactive)
- GI50 [15]: 2.88 µM (inactive)
- GI50 [16]: 29.4 µM (inactive)
- GI50 [17]: 9.51 µM (inactive)
- GI50 [18]: 33.9 µM (inactive)
- GI50 [19]: 14.3 µM (inactive)

SMILES: Oc1nncc2[nH]c(-c3ccccc3)cc12
- GI50 [1]: 75 µM (inactive)
- GI50 [20]: 37.8 µM (inactive)
- GI50 [3]: 36.7 µM (inactive)
- GI50 [4]: 43.1 µM (inactive)
- GI50 [5]: 21.9 µM (inactive)
- GI50 [6]: 45.8 µM
- GI50 [7]: 61.5 µM (inactive)
- GI50 [8]: > 100 µM (inactive)
- GI50 [10]: > 100 µM (inactive)
- GI50 [12]: 30.1 µM (inactive)
- GI50 [13]: 27 µM (inactive)
- GI50 [14]: > 100 µM (inactive)
- GI50 [15]: 46.5 µM (inactive)
- GI50 [16]: 23.7 µM (inactive)
- GI50 [17]: 52 µM (inactive)
- GI50 [18]: 30.5 µM (inactive)
- GI50 [19]: 67.1 µM (inactive)

SMILES: O=C(NC(=O)c1ccccc1[N+](=O)[O-])Nc1ccc(Oc2ncc(Cl)cn2)c(C(F)(F)F)c1
- GI50 [1]: < 0.01 µM (active)
- GI50 [2]: < 0.01 µM (active)
- GI50 [3]: 0.0154 µM (active)
- GI50 [4]: 0.0184 µM (active)
- GI50 [5]: 0.126 µM (active)
- GI50 [6]: < 0.0126 µM
- GI50 [7]: 0.0181 µM (active)
- GI50 [8]: < 0.01 µM (active)
- GI50 [9]: < 0.01 µM (active)
- GI50 [10]: 0.0213 µM (active)
- GI50 [11]: < 0.01 µM (active)
- GI50 [12]: < 0.01 µM (active)
- GI50 [13]: < 0.01 µM (active)
- GI50 [14]: 0.0218 µM (active)
- GI50 [15]: 0.116 µM (active)
- GI50 [16]: 22.1 µM (inactive)
- GI50 [17]: < 0.0121 µM (active)
- GI50 [18]: < 0.01 µM (active)
- GI50 [19]: 0.0281 µM (active)

SMILES: Nc1ncnc2c1nc(Cl)n2C1OC2COP(=O)(O)OC2C1O (stereo not given)
- GI50 [1]: 5.04 µM (inactive)
- GI50 [2]: 1.69 µM (inactive)
- GI50 [3]: 1.29 µM (inactive)
- GI50 [4]: 5.55 µM (inactive)
- GI50 [5]: 22.4 µM (inactive)
- GI50 [6]: 3.76 µM
- GI50 [9]: 19.6 µM (inactive)
- GI50 [10]: 11 µM (inactive)
- GI50 [11]: 3.63 µM (inactive)
- GI50 [13]: 3.15 µM (inactive)
- GI50 [14]: > 100 µM (inactive)
- GI50 [15]: 3.55 µM (inactive)
- GI50 [16]: 2.38 µM (inactive)
- GI50 [17]: 50.6 µM (inactive)
- GI50 [18]: 18.9 µM (inactive)
- GI50 [19]: 5.87 µM (inactive)

SMILES: O=[N+]([O-])c1cc(-c2nnc(C34CC5CC(CC(C5)C3)C4)o2)cc([N+](=O)[O-])c1
- GI50 [1]: 34.2 µM (inactive)
- GI50 [2]: 61.7 µM (inactive)
- GI50 [3]: > 100 µM (inactive)
- GI50 [4]: 17.9 µM (inactive)
- GI50 [5]: > 100 µM (inactive)
- GI50 [6]: 21.1 µM
- GI50 [7]: 59.4 µM (inactive)
- GI50 [8]: 36.1 µM (inactive)
- GI50 [9]: 64.7 µM (inactive)
- GI50 [10]: > 100 µM (inactive)
- GI50 [11]: > 100 µM (inactive)
- GI50 [12]: 45.2 µM (inactive)
- GI50 [13]: > 100 µM (inactive)
- GI50 [14]: > 100 µM (inactive)
- GI50 [15]: > 100 µM (inactive)
- GI50 [16]: > 100 µM (inactive)
- GI50 [17]: 45.5 µM (inactive)
- GI50 [18]: 83.4 µM (inactive)
- GI50 [19]: > 100 µM (inactive)
